Source: publication PMC12040169 (PLOS Biology, 2025)

Test: in vitro
Conditions: human, hela cells, % viability

Row | SMILES | viability at 28.5 h, 10 µM
1 | NC(=O)c1ccc(Nc2cc(N)ncn2)cc1 [CBK017969] | 94.1%
2 | Cc1cc(C)c2nc(O)nc(O)c2c1 [CBK017986] | 94.4%
3 | CC(=S)NCC1CC(c2ccc(N3CC[S+]([O-])CC3)c(F)c2)=NO1 (stereo not shown) [CBK017992] | 110%
4 | O=C(NCc1ccc(Cl)cc1)c1cnc2ccc(CN3CCSCC3)cc2c1O [CBK018010] | 97.9%
5 | Fc1cc2c3c(c1)c1c(n3CCO2)CCNCC1 [CBK018018C] | 102%
6 | Cn1cnnc1SCc1nc(N)nc(Nc2ccccc2)n1 [CBK018022] | 106%
7 | CCN(CC)CCNC(=O)c1c(C)oc2cc(Br)c(OC)cc12 [CBK018064] | 87.3%
8 | CC(C)(C)C(=O)Nc1cccc(OC(F)(F)C(F)Cl)c1 (stereo not shown) [CBK018091] | 95%
9 | Cc1nc2ccccc2[nH]/c1=N/O [CBK018103] | 104%
10 | CCOC(=O)c1nnc(-c2cccs2)nc1NC1CCCCC1 [CBK018110] | 86.8%
11 | CC(C)Oc1cc(NC(=O)CS(=O)(=O)CC(=O)N(C)C)c(Cl)cc1Cl [CBK018112] | 113%
12 | CC12CCC(C(=O)Nc3ccccc3)(OC1=O)C2(C)C (stereo not shown) [CBK018129] | 96.4%
13 | COCc1cc(C)nc2sc(C(N)=O)c(N)c12 [CBK018149] | 93%
14 | O=c1[nH]c2cc3nn[nH]c3cc2[nH]1 [CBK018154] | 99.9%
15 | Sc1nnc2sc3ccccc3n12 [CBK018156] | 103%
16 | Cc1ccc(-c2ccc(/C=C/c3cc(C(F)(F)F)nc(=O)[nH]3)o2)cc1Cl [CBK018169] | 103%
17 | COc1ccc2cc(/C=N/NC(=O)CN3CCCCC3)c(Cl)nc2c1 [CBK018181] | 95.3%
18 | Cc1cc(C)c2nn[nH]c2c1CN1CCCC1 [CBK018196] | 100%
19 | O=C(NCCCO)c1c(O)c2ccccc2[nH]c1=O [CBK018215] | 71.7%
20 | Cc1sc2nc(NCCO)nc(O)c2c1C [CBK018257] | 86.9%
21 | CCOC(=O)NC(=S)NCCCn1ccnc1 [CBK018272] | 112%
22 | CSc1nc(N)c2c3c(sc2n1)CN(C)CC3 [CBK018303] | 122%
23 | O=C(OCc1nc2cc3ccccc3cc2[nH]1)C1CCCCC1 [CBK018307] | 94%
24 | Cc1c2cn[nH]c(=O)c2c(C)n1-c1ccccc1 [CBK018349] | 98.3%
25 | CCOC(=O)c1ccc(NC(=S)NCCN(CC)CC)cc1 [CBK018358] | 104%

Row | SMILES | viability at 28.5 h, 10 µM
26 | Cc1cc2c3c(c1)c1c(n3CCC2)CCNCC1 [CBK018380C] | 96.9%
27 | Cc1ncccc1Oc1ccc(NC(=O)N2CCc3ccccc3CC2)cn1 [CBK018383] | 96.6%
28 | COc1ccccc1N/C(=N\OCc1ccc(Cl)cc1Cl)c1nonc1N [CBK018391] | 91%
29 | O=S1(=O)C=C(c2ccc(Cl)cc2)S(=O)(=O)CC1 [CBK018403] | 86.3%
30 | CCOC(=O)c1cnc2ccc(C(CCOCc3ccccc3)OCc3ccccc3)cc2c1O (stereo not shown) [CBK018405] | 93.8%
31 | Fc1cc2c3c(c1)c1c(n3CCC2)CCNCC1 [CBK018406C] | 105%
32 | NC1=C(N)OC(Oc2ccccc2C(F)(F)F)=NN1 [CBK018424] | 57.2%
33 | Clc1ccc(-c2cc(CN3CCCCC3)no2)cc1Cl [CBK018435] | 102%
34 | O=S(=O)(c1ccccc1)c1ccc(N2CCNCC2)cc1 [CBK018452] | 97.8%
35 | CCCN1CCC(N2CCN(c3ccc([N+](=O)[O-])cc3)CC2)CC1 [CBK018459] | 96.3%
36 | CCOC(=O)c1cnc(C(C)(C)C)nc1O [CBK018470] | 88.6%
37 | COc1ccccc1C(=O)NC1CN2CCC1CC2 (stereo not shown) [CBK018475C] | 75.5%
38 | O=C(NCc1ccc(Cl)cc1)c1cn(-c2ccccc2)c2ccc(CN3CCOCC3)cc2c1=O [CBK018481] | 98.7%
39 | CSC(=S)n1c(C)nc2ccccc21 [CBK018539] | 92.3%
40 | CC1(C)CN(c2ccc(Cl)cn2)C1=O [CBK018550] | 93.6%
41 | COc1ccnc(Sc2ccc(Cl)cc2)c1C#N [CBK018571] | 92.2%
42 | CC(=O)c1c2c(c(N3CCN(C#N)CC3)[nH]c1=S)CC(C)(C)OC2 [CBK018622] | 86.3%
43 | COC(=O)NC(=S)Nc1ccc2c(c1)OCCO2 [CBK018644] | 79%
44 | S=c1ccc(N/N=C/C2CC=CCC2)n[nH]1 (stereo not shown) [CBK018655] | 95.3%
45 | Cc1cc(S(=O)(=O)CC#N)c(C)cc1Cl [CBK018672] | 89.2%
46 | CC1OCN(c2ccc(C(C)(C)C)cc2)Cn2c1nc1ccccc12 (stereo not shown) [CBK018706] | 88%
47 | CCN(CC)S(=O)(=O)c1c(C)[nH]c(=O)[nH]c1=O [CBK018721] | 94.1%
48 | Cc1c(-c2ccnc(N)n2)nnn1-c1ccc(Cl)cc1Cl [CBK018733] | 65.5%
49 | O=[N+]([O-])c1ccc(N/N=C/c2cnn(-c3ccccc3)c2)cc1 [CBK018746] | 94%
50 | N#C/C(=N/Nc1ccc(Br)cc1)C1=NC(=O)CS1 [CBK018747] | 96%

Row | SMILES | viability at 28.5 h, 10 µM
51 | CC(C)(C)SCCNc1nc(Cl)nc(N2CCSCC2)n1 [CBK018768] | 80.2%
52 | CC(C)c1cc(C(C)C)c(S(=O)(=O)n2cnc3c2c(=O)[nH]c(=O)n3C)c(C(C)C)c1 [CBK018772] | 107%
53 | CCc1nnc(NC(=O)COC(=O)CSc2nc(C)cc(C)n2)s1 [CBK018792] | 90.9%
54 | S=C(Nc1ccccc1Cl)Nc1ccccc1-n1cccc1 [CBK018806] | 81.6%
55 | CC(C)(C)C1CCC(=NNC(=O)c2ccc(CN3CCOCC3)cc2)CC1 (stereo not shown) [CBK018812] | 97.9%
56 | CNCS(=O)(=O)C(F)(F)S(=O)(=O)N(C)C [CBK018820] | 89.7%
57 | O=c1nc(NN=C2CCCCC2)cn[nH]1 [CBK018838] | 90.8%
58 | CCCc1nnc(C(=O)NC(=O)NCCCN(C)C)s1 [CBK018853] | 84.3%
59 | COc1ccc(C2SCCCS2)cc1C(C)(C)C [CBK018886] | 105%
60 | COc1ccc(/N=C(/Nc2cccc(C(F)(F)F)c2)SC)cc1 [CBK018896I] | 98.4%
61 | O=C(Nc1cccc(C(F)(F)F)c1)c1cnsn1 [CBK018923] | 88.9%
62 | O=C(O)CSc1nnc2ccc(C(F)(F)F)cn12 [CBK018930] | 81.3%
63 | CC1=NN(C(=O)NS(=O)(=O)c2ccccc2Cl)C(C)(C)C1 [CBK018947] | 120%
64 | COc1cc(Cl)nnc1Cl [CBK018956] | 108%
65 | CC1(c2ccc(Br)cc2)NC(=O)CS1 (stereo not shown) [CBK018962] | 92.2%
66 | O=C(NC(S(=O)O)C(F)(F)F)OCc1ccccc1 (stereo not shown) [CBK018979] | 87%
67 | C1CN2CCC1/C(=N\Nc1nnn[nH]1)C2 [CBK019005C] | 93.8%
68 | CN(C)c1nc2n(c(=O)n1)CCS2 [CBK019025] | 92.3%
69 | CC(=O)Nc1ccc(-c2nc[nH]c2Br)cc1 [CBK019063] | 88%
70 | COC(=O)c1ccc(SCc2nc(N3CCOCC3)c3c(c2C#N)CC(C)(C)OC3)o1 [CBK019077] | 114%
71 | FC(F)(F)c1csc(Nc2ccc(Cl)c(Cl)c2)n1 [CBK019093] | 85.6%
72 | CC(C)(C)NCCN1CCn2c1nc1ccccc12 [CBK019113] | 82%
73 | CC1CCCC(C)N1c1nn(C)c(=O)[nH]1 (stereo not shown) [CBK019114] | 100%
74 | Cc1ccc(C)n1C1CC(C)(C)NC(C)(C)C1 [CBK019116] | 91.1%
75 | COc1ccc2sc(Br)c(C(=O)O)c2c1 [CBK019180] | 103%

Row | SMILES | viability at 28.5 h, 10 µM
76 | COC(=O)CNC(c1ccccc1)c1cc(Br)ccc1N (stereo not shown) [CBK019222] | 96.8%
77 | Cc1cc(=O)[nH]c(SCC(=O)O)c1C#N [CBK019224] | 116%
78 | Cc1cc(Oc2ccc(Cl)cc2Cl)nc(OCC#N)n1 [CBK019232] | 96.9%
79 | O=S1(=O)CCC(SCc2ccccc2)C1 (stereo not shown) [CBK019237] | 89.1%
80 | CN(C)c1ccc(/C=N/N=C2\NC(=O)CS2)cc1 [CBK019273] | 60.6%
81 | O=C(CN1CCOCC1)c1ccc(O)o1 [CBK019286] | 95.4%
82 | Cc1ccc(C(=O)C2CCN(S(=O)(=O)c3ccc(Cl)c(Cl)c3)CC2)cc1 [CBK019294] | 106%
83 | CCCCCCC1N=NC(c2ccc(F)cc2)=CN1O (stereo not shown) [CBK019298] | 94.8%
84 | O=S1(=O)N=C(c2cccs2)C=C(C(F)(F)F)N1 [CBK019309] | 106%
85 | COc1nc(OC)nc(Sc2ccc(N)cc2)n1 [CBK019319] | 88.3%
86 | N#Cc1c(-c2ccc(Cl)cc2)c[nH]c1N [CBK019323] | 104%
87 | CC(C)(C)OC(=O)N(Cc1cccs1)S(C)(=O)=O [CBK019338] | 94.1%
88 | CN1CCN(CC(=O)N/N=C/C2CC=CCC2)CC1 (stereo not shown) [CBK019340] | 89.6%
89 | CCP(CC)c1ccc(C(=O)O)cc1 [CBK019342B] | 91.1%
90 | CSc1ccc(CN(C)CCN(C)C)cc1 [CBK019349] | 97.9%
91 | CC1CN(C2(n3nnc4ccccc43)CCC(C(C)(C)C)CC2)CC(C)O1 (stereo not shown) [CBK019373] | 98.5%
92 | O=S(=O)(c1ccc(C2=CSC3=NCCN23)cc1)N1CCOCC1 [CBK019381] | 101%
93 | CSc1nn(C)c(=S)c2c3c(oc12)CCC3 [CBK019474] | 92.3%
94 | CCOC(=O)N/N=C(/C)c1ccc(Br)s1 [CBK019480] | 93.5%
95 | CS(=O)(=O)CS(=O)(=O)C1=C(N2CCOCC2)C2CCN1CC2 [CBK019499] | 87.5%
96 | CCOc1sc(=S)n(C)c1C(C)=O [CBK019515] | 88%
97 | O=C(CSc1cccs1)Nc1nccs1 [CBK019601] | 88.7%
98 | N#Cc1sc(N)c2ccc(-c3ccncc3)nc12 [CBK019761] | 105%
99 | NC(=O)NCc1ccc(F)cc1 [CBK019769] | 110%

Same assay, conditions: human, hela cells, % viability, bulk resorufin, single well

Row | SMILES | viability at 28.5 h, 10 µM
100 | O=C1OC(c2c(O)nc(=O)[nH]c2O)c2ccccc21 (stereo not shown) [CBK019775] | 113%
